Results: ChEMBL document CHEMBL5291721, “A preclinical secondary pharmacology resource illuminates target-adverse drug reaction associations of marketed drugs” (Nat Commun, 2023)

Legend:
D(3) dopamine receptor = D(3) dopamine receptor (Homo sapiens, UniProt P35462)
[1] = biological target: T1, Alpha-2A adrenergic receptor (Homo sapiens, UniProt P08913)
T1 sequence (P08913 whole entry): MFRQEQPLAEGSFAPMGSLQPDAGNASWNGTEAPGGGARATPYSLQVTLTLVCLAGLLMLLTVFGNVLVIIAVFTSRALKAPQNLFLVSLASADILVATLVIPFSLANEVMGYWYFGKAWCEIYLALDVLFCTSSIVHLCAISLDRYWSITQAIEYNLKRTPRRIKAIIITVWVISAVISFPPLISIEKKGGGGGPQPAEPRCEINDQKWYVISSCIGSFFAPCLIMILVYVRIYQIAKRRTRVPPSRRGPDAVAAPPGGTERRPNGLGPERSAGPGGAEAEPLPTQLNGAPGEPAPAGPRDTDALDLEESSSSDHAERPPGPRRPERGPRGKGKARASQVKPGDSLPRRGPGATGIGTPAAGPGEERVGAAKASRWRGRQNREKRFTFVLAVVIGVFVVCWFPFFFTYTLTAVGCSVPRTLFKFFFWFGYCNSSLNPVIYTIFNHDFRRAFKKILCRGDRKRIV

[2] = biological target: T2, Alpha-1A adrenergic receptor (Homo sapiens, UniProt P35348)
T2 sequence (P35348 whole entry): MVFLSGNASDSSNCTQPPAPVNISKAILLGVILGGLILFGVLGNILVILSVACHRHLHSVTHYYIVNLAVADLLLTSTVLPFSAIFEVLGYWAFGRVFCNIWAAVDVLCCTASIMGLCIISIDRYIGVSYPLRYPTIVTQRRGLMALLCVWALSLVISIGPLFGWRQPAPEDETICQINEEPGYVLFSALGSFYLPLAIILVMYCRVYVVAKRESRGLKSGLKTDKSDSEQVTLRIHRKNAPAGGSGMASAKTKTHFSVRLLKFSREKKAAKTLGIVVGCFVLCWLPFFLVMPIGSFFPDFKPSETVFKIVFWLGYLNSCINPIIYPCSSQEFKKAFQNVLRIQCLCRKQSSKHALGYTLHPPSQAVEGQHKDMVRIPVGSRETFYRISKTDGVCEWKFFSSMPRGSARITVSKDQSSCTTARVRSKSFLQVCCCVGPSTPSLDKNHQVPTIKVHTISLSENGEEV

Estrogen receptor = biological target: T3, Estrogen receptor (Homo sapiens, UniProt P03372)
T3 sequence (P03372 whole entry): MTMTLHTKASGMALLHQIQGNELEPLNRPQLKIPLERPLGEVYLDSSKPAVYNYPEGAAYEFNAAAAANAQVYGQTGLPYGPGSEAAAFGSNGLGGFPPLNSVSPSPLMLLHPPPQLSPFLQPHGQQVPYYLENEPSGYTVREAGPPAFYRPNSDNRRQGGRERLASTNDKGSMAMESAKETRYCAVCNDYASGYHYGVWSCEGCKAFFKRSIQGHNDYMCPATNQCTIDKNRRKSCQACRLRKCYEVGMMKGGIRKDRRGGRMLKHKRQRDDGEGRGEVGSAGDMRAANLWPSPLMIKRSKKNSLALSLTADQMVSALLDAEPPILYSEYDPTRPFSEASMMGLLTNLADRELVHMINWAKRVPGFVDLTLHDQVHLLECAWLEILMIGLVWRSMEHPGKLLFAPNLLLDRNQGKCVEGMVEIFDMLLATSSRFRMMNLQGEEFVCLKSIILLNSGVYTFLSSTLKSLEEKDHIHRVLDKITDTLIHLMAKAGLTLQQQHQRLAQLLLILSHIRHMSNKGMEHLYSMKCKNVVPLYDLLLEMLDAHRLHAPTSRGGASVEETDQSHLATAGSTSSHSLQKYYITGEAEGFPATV

[3] = biological target: T4, Muscarinic acetylcholine receptor M2 (Homo sapiens, UniProt P08172); assay type: functional, cell-based
T4 sequence (P08172 whole entry): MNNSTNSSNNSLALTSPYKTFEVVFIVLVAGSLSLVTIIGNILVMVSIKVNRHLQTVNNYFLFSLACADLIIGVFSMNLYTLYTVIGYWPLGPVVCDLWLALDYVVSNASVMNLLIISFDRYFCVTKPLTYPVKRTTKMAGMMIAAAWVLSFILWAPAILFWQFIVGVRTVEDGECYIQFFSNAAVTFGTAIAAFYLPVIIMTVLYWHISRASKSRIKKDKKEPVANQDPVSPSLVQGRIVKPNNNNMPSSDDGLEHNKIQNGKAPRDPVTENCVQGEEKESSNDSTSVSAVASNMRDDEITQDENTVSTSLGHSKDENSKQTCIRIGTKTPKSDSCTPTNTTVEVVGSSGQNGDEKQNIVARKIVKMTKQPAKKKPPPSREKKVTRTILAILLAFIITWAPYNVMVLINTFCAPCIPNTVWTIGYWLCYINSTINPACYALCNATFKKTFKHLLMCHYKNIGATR

Mu-type opioid receptor = Mu-type opioid receptor (Homo sapiens, UniProt P35372)
[4] = biological target: T5, Muscarinic acetylcholine receptor M1 (Homo sapiens, UniProt P11229); assay type: functional
T5 sequence (P11229 whole entry): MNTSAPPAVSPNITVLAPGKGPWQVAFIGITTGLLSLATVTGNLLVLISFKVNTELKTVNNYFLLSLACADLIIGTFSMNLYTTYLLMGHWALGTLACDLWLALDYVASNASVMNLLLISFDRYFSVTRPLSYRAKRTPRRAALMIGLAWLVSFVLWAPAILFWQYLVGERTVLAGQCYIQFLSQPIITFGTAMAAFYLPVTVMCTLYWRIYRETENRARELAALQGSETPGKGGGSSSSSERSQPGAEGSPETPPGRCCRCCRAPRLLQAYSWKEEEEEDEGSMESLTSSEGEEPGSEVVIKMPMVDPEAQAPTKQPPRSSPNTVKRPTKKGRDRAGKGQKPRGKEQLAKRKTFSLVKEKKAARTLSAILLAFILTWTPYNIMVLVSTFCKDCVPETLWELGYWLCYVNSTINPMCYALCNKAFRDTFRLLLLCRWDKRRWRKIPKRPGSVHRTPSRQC
Further: assay procedure not described here.

Mu-type opioid receptor, sequence (P35372 whole entry): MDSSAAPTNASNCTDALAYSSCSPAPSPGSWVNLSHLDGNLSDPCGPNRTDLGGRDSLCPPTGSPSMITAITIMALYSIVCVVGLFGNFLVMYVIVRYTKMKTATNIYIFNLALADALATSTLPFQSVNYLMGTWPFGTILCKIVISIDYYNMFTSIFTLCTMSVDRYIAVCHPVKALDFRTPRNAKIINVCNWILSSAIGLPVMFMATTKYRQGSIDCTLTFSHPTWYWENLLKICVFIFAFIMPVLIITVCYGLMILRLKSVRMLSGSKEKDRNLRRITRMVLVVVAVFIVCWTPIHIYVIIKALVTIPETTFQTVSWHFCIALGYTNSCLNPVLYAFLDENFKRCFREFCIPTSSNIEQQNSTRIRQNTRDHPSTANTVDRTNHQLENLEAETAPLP
D(3) dopamine receptor, sequence (P35462 whole entry): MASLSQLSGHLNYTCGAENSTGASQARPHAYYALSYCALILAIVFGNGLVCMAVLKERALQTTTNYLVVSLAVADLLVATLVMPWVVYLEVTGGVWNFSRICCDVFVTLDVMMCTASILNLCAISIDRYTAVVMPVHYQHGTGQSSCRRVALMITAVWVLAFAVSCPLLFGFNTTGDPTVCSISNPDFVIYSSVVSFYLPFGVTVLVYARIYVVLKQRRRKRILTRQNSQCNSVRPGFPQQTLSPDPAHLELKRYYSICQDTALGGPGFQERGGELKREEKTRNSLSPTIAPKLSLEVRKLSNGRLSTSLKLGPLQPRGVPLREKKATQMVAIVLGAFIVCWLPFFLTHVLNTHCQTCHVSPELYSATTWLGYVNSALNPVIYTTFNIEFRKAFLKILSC

Structure (SMILES) | AC50 (D(3) dopamine receptor) | AC50 [1] | also measured
NCC(CC(=O)O)c1ccccc1 (configuration not stated) [PHENIBUT] | > 30 µM | > 30 µM | 
Cc1cnc(C(=O)NCCc2ccc(S(=O)(=O)NC(=O)NC3CCCCC3)cc2)cn1 [GLIPIZIDE] |  | > 30 µM | AC50 [2]: > 10 µM; AC50 (Estrogen receptor): > 30 µM
CCCN[C@H]1CCc2nc(N)sc2C1 [PRAMIPEXOLE] |  |  | AC50 [3]: > 10 µM; AC50 [2]: > 10 µM; AC50 (Mu-type opioid receptor): > 30 µM; AC50 [4]: > 10 µM
COc1ccc(CN(CCN(C)C)c2ccccn2)cc1 [PYRILAMINE] |  | 7.07 µM | 
C=CCSCC1Nc2cc(Cl)c(S(N)(=O)=O)cc2S(=O)(=O)N1 (configuration not stated) [ALTHIAZIDE] | > 30 µM | > 30 µM | 
NC(=O)OCC(O)COc1ccc(Cl)cc1 (configuration not stated) [CHLORPHENESIN CARBAMATE] | > 30 µM | > 30 µM | 
C[C@H](Cc1cc2c(c(C(N)=O)c1)N(CCCO)CC2)NCCOc1ccccc1OCC(F)(F)F [SILODOSIN] | 0.0483 µM | 1.28 µM | 
Cc1cc(C(C)(C)C)cc(C)c1CC1=NCCN1 [XYLOMETAZOLINE] |  |  | AC50 [3]: 12.1 µM; AC50 [2]: 1.27 µM; AC50 [4]: 14.4 µM; AC50 (Estrogen receptor): > 30 µM
C=C1CC[C@H](O)C/C1=C/C=C1\CCC[C@]2(C)[C@@H]([C@H](C)/C=C/[C@H](C)C(C)C)CC[C@@H]12 [ERGOCALCIFEROL] | > 30 µM | > 30 µM | 
O=C(O)c1cn(C2CC2)c2cc(N3CCNCC3)c(F)cc2c1=O [CIPROFLOXACIN] |  |  | AC50 (Estrogen receptor): > 30 µM
CCN(CCCc1ccccc1)CCCc1ccccc1 [ALVERINE] | 1.96 µM | 1.96 µM | 
CCN(CC)C(=S)S [DITIOCARB] | > 30 µM | > 30 µM | 
CC(N)Cc1ccc(O)cc1 (configuration not stated) [HYDROXYAMPHETAMINE] | > 30 µM | > 30 µM | 
Cc1cc2cc3c(C)cc(=O)oc3c(C)c2o1 [TRIOXSALEN] |  |  | AC50 [3]: > 10 µM; AC50 [2]: > 10 µM; AC50 (Mu-type opioid receptor): > 30 µM; AC50 (Estrogen receptor): > 30 µM
CCOC(=O)C1=C(C)NC(C)=C(C(=O)OC)C1c1cccc([N+](=O)[O-])c1 (configuration not stated) [NITRENDIPINE] |  |  | AC50 [3]: > 10 µM; AC50 [2]: > 10 µM; AC50 (Mu-type opioid receptor): > 30 µM; AC50 (Estrogen receptor): > 30 µM
CCOC(=O)[C@H](CCc1ccccc1)N[C@@H](C)C(=O)N(CC(=O)O)C1Cc2ccccc2C1 | > 30 µM | > 30 µM | 
CN1CCN(C2=Nc3ccccc3Oc3ccc(Cl)cc32)CC1 [LOXAPINE] | 0.019 µM |  | AC50 (Mu-type opioid receptor): 13 µM; AC50 [4]: 0.794 µM; AC50 (Estrogen receptor): > 30 µM
CC(CCc1ccc(O)cc1)NCCc1ccc(O)c(O)c1 (configuration not stated) [DOBUTAMINE] |  |  | AC50 [3]: > 30 µM; AC50 [2]: 0.255 µM; AC50 (Mu-type opioid receptor): 1.7 µM; AC50 (Estrogen receptor): > 30 µM
CCCCC1C(=O)N(c2ccccc2)N(c2ccccc2)C1=O [PHENYLBUTAZONE] |  |  | AC50 [3]: > 10 µM; AC50 [2]: > 10 µM; AC50 (Mu-type opioid receptor): > 30 µM; AC50 (Estrogen receptor): > 10 µM
CCOC(=O)N1CSC[C@H]1C(=O)O [TELMESTEINE] | > 30 µM | > 30 µM | 
CC(C)N(CCNC(=O)CN1CCCC1=O)C(C)C | > 30 µM | > 30 µM | 
CN1C(=O)/C(=N\NC(N)=S)c2ccccc21 [METHISAZONE] | > 30 µM | > 30 µM | 

Structure (SMILES) | AC50 (D(3) dopamine receptor) | AC50 [1] | also measured
CC(C)(C)NC[C@H](O)COc1cccc2c1CCCC2=O [LEVOBUNOLOL] | > 30 µM | > 30 µM | 
c1ccc2c(c1)CCc1ccccc1N2C1CN2CCC1CC2 (configuration not stated) [QUINUPRAMINE] | 6.47 µM | 13.2 µM | 
CCC(=O)O[C@]1(C(=O)CCl)[C@@H](C)C[C@H]2[C@@H]3C[C@H](F)C4=CC(=O)C=C[C@]4(C)[C@@]3(F)[C@@H](O)C[C@@]21C [HALOBETASOL PROPIONATE] | > 30 µM | > 30 µM | 
Cc1cc(NC(=O)C2=C(O)c3ccccc3S(=O)(=O)N2C)no1 [ISOXICAM] | > 30 µM | > 30 µM | 
Oc1ccc2c(c1)CC[C@H](c1ccccc1)[C@@H]2c1ccc(OCCN2CCCC2)cc1 [LASOFOXIFENE] |  |  | AC50 [4]: 11 µM
CC1=CCC(C(C)(C)O)CC1O (configuration not stated) [SOBREROL] | > 30 µM | > 30 µM | 
Cc1cc(N)c2ccccc2[n+]1CCCCCCCCCC[n+]1c(C)cc(N)c2ccccc21 | 0.0798 µM | 0.464 µM | 
Cc1ccccc1N1CCN(CCc2nnc3n2CCCC3)CC1 [DAPIPRAZOLE] | 16.6 µM | 3.77 µM | 
COc1cc2c(cc1OC)CC(=O)N(CCCN(C)C[C@H]1Cc3cc(OC)c(OC)cc31)CC2 [IVABRADINE] | 2.61 µM | > 30 µM | 
CC(C)NCC(O)c1ccc(O)c(O)c1 (configuration not stated) [ISOPROTERENOL] |  |  | AC50 [3]: > 10 µM; AC50 (Mu-type opioid receptor): > 30 µM
CC[C@@H]([C@H](C)O)n1ncn(-c2ccc(N3CCN(c4ccc(OC[C@@H]5CO[C@@](Cn6cncn6)(c6ccc(F)cc6F)C5)cc4)CC3)cc2)c1=O [POSACONAZOLE] | > 30 µM | > 30 µM | AC50 [4]: > 30 µM
CCCc1nc(C(C)(C)O)c(C(=O)O)n1Cc1ccc(-c2ccccc2-c2nnn[nH]2)cc1 [OLMESARTAN] | > 30 µM | > 30 µM | 
CN(C)CCCNc1c2ccccc2nc2cccc([N+](=O)[O-])c12 [NITRACRINE] |  |  | AC50 [3]: 16 µM; AC50 [4]: 11 µM; AC50 (Estrogen receptor): > 30 µM
Cc1ncc(COP(=O)(O)O)c(C=O)c1O [PYRIDOXAL PHOSPHATE ANHYDROUS] | > 30 µM | > 30 µM | 
COC(=O)c1ccc(O)cc1 [METHYLPARABEN] | > 30 µM | > 30 µM | 
CN(C)CCOC(c1ccccc1)c1ccc(Br)cc1 (configuration not stated) [BROMODIPHENHYDRAMINE] | 2.68 µM | 8.38 µM | 
COc1cc(N2CCC(N3CCN(C)CC3)CC2)ccc1Nc1ncc(Cl)c(Nc2ccccc2P(C)(C)=O)n1 [BRIGATINIB] | > 30 µM | > 30 µM | 
CC(N)C(O)c1ccccc1 (configuration not stated) [PHENYLPROPANOLAMINE] |  |  | AC50 [3]: > 10 µM; AC50 [2]: > 10 µM; AC50 (Mu-type opioid receptor): > 10 µM; AC50 [4]: > 10 µM
CC(C(=O)O)c1ccc(CC2CCCC2=O)cc1 (configuration not stated) [LOXOPROFEN] |  |  | AC50 [3]: > 30 µM; AC50 (Estrogen receptor): > 30 µM
Cc1c(N(C)CS(=O)(=O)O)c(=O)n(-c2ccccc2)n1C [METAMIZOLE] | > 30 µM | > 30 µM | 
CC(=O)O[C@]1(C(C)=O)CC[C@H]2[C@@H]3C=C(Cl)C4=CC(=O)CC[C@]4(C)[C@H]3CC[C@@]21C [CHLORMADINONE ACETATE] | > 30 µM | > 30 µM | 
